# pEC50: −log10 of the molar value.
# Key:
# [1] = target: Endothelial PAS domain-containing protein 1 (Homo sapiens, UniProt Q99814)
# Description: Agonist activity at HIF-2alpha in human 786-0 cells assessed as increase in VEGF secretion incubated for 20 hrs by ELISA
# [2] = MRT (0 to t) in male Sprague-Dawley rat at 5 mg/kg, po measured after 32 hrs by LC-MS/MS analysis; conditions: in vivo
# [3] = Half-life in male Sprague-Dawley rat at 5 mg/kg, po measured after 32 hrs by LC-MS/MS analysis; conditions: in vivo
# [4] = Clearance in male Sprague-Dawley rat at 5 mg/kg, po measured after 32 hrs by LC-MS/MS analysis; conditions: in vivo
# [5] = MRT (0 to t) in male Sprague-Dawley rat at 0.5 mg/kg, iv measured after 32 hrs by LC-MS/MS analysis; conditions: in vivo
# [6] = Half-life in male Sprague-Dawley rat at 0.5 mg/kg, iv measured after 32 hrs by LC-MS/MS analysis; conditions: in vivo
# [7] = Clearance in male Sprague-Dawley rat at 0.5 mg/kg, iv measured after 32 hrs by LC-MS/MS analysis; conditions: in vivo
# [8] = Volume of distribution at steady state in male Sprague-Dawley rat at 0.5 mg/kg, iv measured after 32 hrs by LC-MS/MS analysis; conditions: in vivo
# in vivo [9] = conditions: male, Sprague-Dawley, rat, po, 5 mg/kg
# Description: AUC (0 to t) in male Sprague-Dawley rat at 5 mg/kg, po measured after 32 hrs by LC-MS/MS analysis
# in vivo [10] = conditions: male, Sprague-Dawley, rat, po, 5 mg/kg; remark: listed apart in the source
# Description: Tmax in male Sprague-Dawley rat at 5 mg/kg, po measured after 32 hrs by LC-MS/MS analysis
# in vivo [11] = conditions: male, Sprague-Dawley, rat, po, 5 mg/kg; remark: listed apart in the source
# Description: Cmax in male Sprague-Dawley rat at 5 mg/kg, po measured after 32 hrs by LC-MS/MS analysis
# in vivo [12] = conditions: male, Sprague-Dawley, rat, po, 5 mg/kg; remark: listed apart in the source
# Description: Oral bioavailability in male Sprague-Dawley rat at 5 mg/kg measured after 32 hrs by LC-MS/MS analysis
# in vivo [13] = conditions: male, Sprague-Dawley, rat, iv, 0.5 mg/kg
# Description: AUC (0 to t) in male Sprague-Dawley rat at 0.5 mg/kg, iv measured after 32 hrs by LC-MS/MS analysis
# in vivo [14] = conditions: male, Sprague-Dawley, rat, iv, 0.5 mg/kg; remark: listed apart in the source
# Description: Tmax in male Sprague-Dawley rat at 0.5 mg/kg, iv measured after 32 hrs by LC-MS/MS analysis
# in vivo [15] = conditions: male, Sprague-Dawley, rat, iv, 0.5 mg/kg; remark: listed apart in the source
# Description: Cmax in male Sprague-Dawley rat at 0.5 mg/kg, iv measured after 32 hrs by LC-MS/MS analysis
# Sequence of Endothelial PAS domain-containing protein 1 (Q99814 whole entry, the tested form may be a part): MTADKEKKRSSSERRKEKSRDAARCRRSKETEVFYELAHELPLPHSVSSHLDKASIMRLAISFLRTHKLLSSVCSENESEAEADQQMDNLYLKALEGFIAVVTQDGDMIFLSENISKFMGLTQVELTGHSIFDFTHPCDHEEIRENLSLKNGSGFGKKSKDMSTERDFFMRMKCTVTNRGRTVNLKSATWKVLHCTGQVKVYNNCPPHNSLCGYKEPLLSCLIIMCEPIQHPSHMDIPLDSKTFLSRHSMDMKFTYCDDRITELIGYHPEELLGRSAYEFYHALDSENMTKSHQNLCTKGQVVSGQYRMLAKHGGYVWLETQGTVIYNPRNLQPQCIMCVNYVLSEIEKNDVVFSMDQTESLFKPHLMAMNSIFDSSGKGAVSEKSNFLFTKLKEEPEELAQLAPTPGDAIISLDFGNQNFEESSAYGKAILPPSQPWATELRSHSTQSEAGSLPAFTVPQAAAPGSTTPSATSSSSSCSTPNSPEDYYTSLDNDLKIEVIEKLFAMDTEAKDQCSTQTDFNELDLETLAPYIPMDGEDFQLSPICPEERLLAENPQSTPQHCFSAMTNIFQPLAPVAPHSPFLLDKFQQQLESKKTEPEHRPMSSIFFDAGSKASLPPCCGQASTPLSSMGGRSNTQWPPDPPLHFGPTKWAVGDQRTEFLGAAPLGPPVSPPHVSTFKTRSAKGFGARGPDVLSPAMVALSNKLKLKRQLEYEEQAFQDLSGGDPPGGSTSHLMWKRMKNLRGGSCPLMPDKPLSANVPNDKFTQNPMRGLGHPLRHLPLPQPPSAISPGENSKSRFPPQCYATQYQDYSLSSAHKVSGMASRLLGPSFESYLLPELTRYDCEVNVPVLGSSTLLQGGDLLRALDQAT
structure (smiles),measurement,setting,value
Cc1onc(-c2ccccc2Cl)c1C(=O)Nc1cc(C(F)(F)F)ccn1,pEC50,[1],5.25
Cc1onc(-c2ccccc2Cl)c1C(=O)N1CCOCC1,pEC50,[1],5.01
Cc1onc(-c2ccccc2F)c1C(=O)Nc1cccc(C(F)(F)F)c1,pEC50,[1],5.00
Nc1ncc(C(=O)Nc2cccc(C(F)(F)F)c2)c(-c2ccccc2Cl)n1,pEC50,[1],5.30
Cc1onc(-c2ccccc2Cl)c1C(=O)Nc1cccc(C#N)c1,pEC50,[1],5.21
O=C(Nc1cccc(C(F)(F)F)c1)c1cn[nH]c1-c1ccccc1Cl,MRT last at 32 h,[2],4.6 h
same,half-life at 32 h,[3],5.09 h
same,CL/F at 32 h,[4],8.83 mL/min/kg
same,MRT last at 32 h,[5],1.54 h
same,half-life at 32 h,[6],2.53 h
same,clearance at 32 h,[7],5.33 mL/min/kg
same,Vd at 32 h,[8],0.53 L/kg
same,pEC50,[1],5.75
same,AUC(0-t) at 32 h,in vivo [9],11100 ng·h/mL
same,Tmax at 32 h,in vivo [10],1.33 h
same,Cmax at 32 h,in vivo [11],1290 ng/mL
same,bioavailability at 32 h,in vivo [12],68.7%
same,AUC(0-t) at 32 h,in vivo [13],1610 ng·h/mL
same,Tmax at 32 h,in vivo [14],1.8 min
same,Cmax at 32 h,in vivo [15],1620 ng/mL
Cc1onc(-c2ccccc2OC(F)F)c1C(=O)Nc1cccc(C(F)(F)F)c1,MRT last at 32 h,[2],7.79 h
same,pEC50,[1],5.64
same,AUC(0-t) at 32 h,in vivo [9],194 ng·h/mL
same,Tmax at 32 h,in vivo [10],1.5 h
same,Cmax at 32 h,in vivo [11],35.9 ng/mL
same,bioavailability at 32 h,in vivo [12],7.02%
same,AUC(0-t) at 32 h,in vivo [13],278 ng·h/mL
same,Tmax at 32 h,in vivo [14],1.8 min
same,Cmax at 32 h,in vivo [15],285 ng/mL

# Reference: ChEMBL document CHEMBL5543101, “Identification of 3-aryl-5-methyl-isoxazole-4-carboxamide derivatives and analogs as novel HIF-2α agonists through docking-based virtual screening and structural modification” (Eur J Med Chem, 2024)
